Measured values as given in patent US20250009695A1, “COMPOSITIONS AND METHODS FOR PROMOTING GLYCOGEN SYNTHASE ACTIVITY AND AUGMENTING GLYCOGEN STORAGE CAPABILITY” (NANJING NUTRABUILDING BIO-TECH CO., LTD., priority 2021, published 2025).

Legend:
[1] = Effect of oral BAIBA administration on liver and skeletal muscle glycogen levels in obese (HFD) mice; type: in vivo; settings: for hepatic glycogen levels (change, in words) / muscle glycogen levels (change, in words): HFD mice, better than exercise alone; for Liver glycogen / Muscle glycogen: obese mice on HFD, oral, week 9-16, P < 0.05 vs Model; for Liver glycogen: main lobe of liver; for Muscle glycogen: soleus muscle
Text: Post quarantine, animals were acclimatized for one week and subsequently the animals were randomized based on body weight stratification. Initially, mice were allocated broadly into two groups with one group receiving the Normal Diet (ND) representing normal subjects and the other receiving a defined High Fat Diet (HFD) representing obese subjects. The HFD was a defined lard-based diet procured from Research Diets, New Jersey, USA (Product No.—D12492, with 60 Kcal % from fat, 20 Kcal % from proteins, and 20 Kcal % from carbohydrates; Lot no. 20050105 and expiry date 30 Nov. 2020). The ND was a defined control diet procured from Hylasco Biotechnology Pvt. Ltd, manufactured by PMI Nutrition International (Batch no. MAY06202 and expiry date February 2021) containing similar nutrients as HFD but with 13 Kcal % from fat, 17 Kcal % from proteins, and […].
The mice in the respective groups were put on ND and HFD for 8 weeks starting at age of ˜8 weeks. Food was offered twice a week by replacing the left-over feed with fresh feed and total weekly feed consumption was calculated and expressed as g feed/day/animal. Bodyweight was recorded once a week. At the end of 8 weeks (Day 57), mean body weight was measured, and animals were randomized based on body weight stratification and grouped separately into respective ND and HFD groups shown in the following experimental design. After the feeding/induction period (Week 1 to 8), the treatment period was from Week 9 to Week 16. A total of 36 mice were randomly grouped into six groups with n=6 in each group. Control Group: Normal mice, maintained on normal diet for 8 weeks, receiving neither exercise nor L-BAIBA treatment. Model Group: Obese mice, maintained on HFD for 8 weeks, receiving neither exercise nor L-BAIBA treatment. Exercise Group: Obese mice, maintained on HFD for 8 weeks, receiving only exercise and no L-BAIBA treatment. BAIBA Group: Obese mice, maintained on HFD for 8 weeks, receiving only LBAIBA treatment and no exercise. Exercise+BAIBA Group: Obese mice, maintained on HFD for 8 weeks, receiving L-BAIBA treatment and exercise.
A regular treadmill (PowerMax) used by humans was availed for subjecting mice to daily exercise. A special lane box made of Perspex was used to fabricate the treadmill's running platform, forming a modified 6-lane rodent treadmill allowing 6 animals to run simultaneously. The mice in the specified groups were exercised daily throughout the treatment period (week 9-16). Exercise consisted of treadmill running at a speed 3.0 m/min with no inclination of the treadmill. Mice were allowed to freely explore the treadmill until each mouse had explored its lane and the treadmill was turned on with a slow increase in the speed until animals begin running at set speed. During the first week of the treatment period, as an introduction the mice were forced to running exercise for 8 minutes. Subsequently, the exercise duration was increased to 9 minutes during the following week. The exercise duration was finally set to 10 minutes daily for the rest of weeks. Exercise took place in a room separated from the actual housing room to which all mice were transferred and kept during the exercise procedures in order to minimize environmental confounders among the mice not subjected to the exercise protocol. […] Entire procedure was supervised by study personnel and no abnormal behavior of animals was observed. Forced treadmill exercise was carried out at preferred lux and noise free conditions.
After completion of 8 weeks of experimentation (at the end of treatment on the day 114), animals were euthanized using an overdose of isoflurane (20% v/v in propylene glycol in a glass vacuum desiccator). The whole soleus muscle tissues and a sample of the main lobe of the liver were used to measure glycogen content using a modified protocol described in Methods in Enzymology Vol. III (Colowick and Kaplan, 1957).

[2] = Effect of BAIBA on liver and skeletal muscle glycogen content in normal mice (ELISA kits); type: in vivo, C57 mice; settings: oral gavage 2 weeks, compared to Exercise group; for glycogen levels in liver tissue (change, in words): FIG. 1; for glycogen levels in muscle tissue (change, in words): FIG. 3
Procedure: (§1) SPF-grade male C57 mice (8 weeks old) were purchased from Nanjing Qinglongshan Laboratory Animal Breeding Center. Mice were housed individually in a steel cage in a room at 24° C. with a 12:12 h (Light:Dark) photoperiod and standard diet. Food and water were provided ad libitum. Forty mice were randomly divided into five groups. Control Group: Receiving neither exercise nor L-BAIBA treatment. Exercise Group: Receiving only exercise and no L-BAIBA treatment. BAIBA Group: Receiving only L-BAIBA treatment and no exercise. Pre-workout Group: Receiving L-BAIBA treatment before exercise. Post-workout Group: Receiving L-BAIBA treatment after exercise. Samples were administered orally (gavage volume was 0.1 mL/10 g per mouse) via a gavage tube for 2 weeks.
(§2) The exercise consisted of treadmill running at a speed of 3.0 m/min with no inclination of the treadmill. Mice were allowed to freely explore the treadmill until each mouse had explored its lane and the treadmill was turned on with a slow increase in the speed until animals begin running at set speed. During the first week of the treatment period, as an introduction the mice were forced to running exercise for 8 minutes. Subsequently, the exercise duration was increased to 9 minutes during the following week. The exercise duration was finally set to 10 minutes daily for the rest of weeks.
After 30 minutes of exercise on day 14th, mice were injected with 0.1 to 0.3 ml 1% thiopental sodium intraperitoneally in order to general anesthesia. The soleus of the hind limbs of mice and liver were taken to detect the content of glycogen contents and glycogen synthetase with ELISA Kits.

glycogen synthetase = experiment: Effect of BAIBA on muscle glycogen synthetase content in normal mice (ELISA kits); type: in vivo, C57 mice; settings: L-BAIBA administration, oral gavage 2 weeks, soleus, FIG. 4
Procedure: as §1
as §2, with “weeks. […]” for “weeks.”

[3] = combination of L-BAIBA and exercise
[4] = L-BAIBA treatment and daily treadmill exercise
[5] = L-BAIBA treatment only, no exercise
[6] = Post-workout Group (L-BAIBA after exercise)
[7] = Pre-workout Group (L-BAIBA before exercise)

CC(CN)C(=O)O (stereo not drawn) [BAIBA, β-aminoisobutyric acid]
hepatic glycogen levels (change, in words) ([1]; L-BAIBA administration alone): significant increase | muscle glycogen levels (change, in words) ([1]; L-BAIBA administration alone): significant increase | hepatic glycogen levels (change, in words) [1, 3]: significant increase | muscle glycogen levels (change, in words) [1, 3]: significant increase | Liver glycogen [1, 4]: 9.95 ± 0.61 mg/g tissue | Muscle glycogen [1, 4]: 0.29 ± 0.08 mg/g tissue | Liver glycogen [1, 5]: 9.66 ± 1.19 mg/g tissue | Muscle glycogen [1, 5]: 0.31 ± 0.06 mg/g tissue | glycogen levels in liver tissue (change, in words) [2, 6]: increase | glycogen levels in muscle tissue (change, in words) [2, 6]: increase | glycogen levels in liver tissue (change, in words) [2, 7]: increase | glycogen levels in muscle tissue (change, in words) [2, 7]: increase | muscle glycogen synthetase content (change, in words) (glycogen synthetase): significant increase
